Laboratory results as given in US20140024653A1, “COMPOSITIONS AND METHODS FOR TREATING CANCER USING PI3K INHIBITOR AND MEK INHIBITOR” (priority 2011, published 2014).
“Also recorded” adds a separate entry of the source. Like-named read-outs stand apart in the source and are kept apart here.

Columns and labels:
[1] = system: panel of 81 cancer cell lines; test: SRB cell growth assay, 72 h, cell line panel; format: cell-based, human; conditions: for IC50: Homo sapiens
MDAMB468 = test: SRB cell growth assay, 72 h; format: cell-based, human; conditions: single agent, up to 50 μM
Method: Cell growth and treatment were performed in 96-well microtitre plates CELLSTAR® (Greiner Bio-One, Germany). Cells harvested from exponential phase cultures by trypsinization were plated in 150 μl of media at optimal seeding densities. The optimal seeding densities for each cell line were determined to ensure exponential growth for the duration of the experiment. All cells growing without anticancer agents were sub-confluent by the end of the treatment as determined by visual inspection.
150 μl of cells, after a 24-hour pre-growth period, were treated by mixing with 50 μl of the compound containing media (resulting in a final DMSO concentration of 0.1%). The cells were allowed to grow at 37° C. for 72 hours. In addition, all experiments contained a few plates with cells that were processed for measurement immediately after the 24 hours recovery period. These plates contained information about the cell number that existed before treatment, at time zero, and served to calculate the cytotoxicity.
After treatment, cells were precipitated by addition of 10% TCA. Prior to fixation, the media was aspirated as described. After an hour of incubation at 4° C., the plates were washed two times with 400 μl of deionized water. Cells were then stained with 100 μl of a 0.08% wt/v SRB. The plates were allowed to sit for at least 30 min. and washed six times with 1% acetic acid to remove unbound stain. The plates were left to dry at room temperature and bound SRB was solubilized with 100 μl of 10 mM Tris base. Measurement of optical density was performed at 560 nm on a Victor 2 plate reader (Perkin Elmer, Germany). The SRB values for A375 and H460 cell lines were near to saturation (2.5 OD units) due to the high protein content of these cells, but not cell confluence. The measurements for these cells were performed at 520 nm instead of 560 nm.
Using these measurements, cellular responses can be calculated for incomplete inhibition of cell growth (GI), complete inhibition of cell growth (T GI) and net loss of cells (LC) due to compound activity. […] This is the drug concentration causing a 50% reduction compared to the net protein increase in control cells during the drug incubation period. In other words, GI50 is IC50 corrected for time zero. Similar to IC90, calculated GI90 values are also reported for all compounds tested. TGI was calculated from Ti=Tz. […] It was calculated as 100×[(Ti−Tz)/Tz]=−50. However, due to 72 hours treatment, low cell seeding density was required and LC50 could rarely be achieved.

[2] = system: human colon carcinoma HCT 116
Method: Mice were over 18 g at start of treatment after an acclimatization time of at least 5 days. […] The mice were housed on a 12 hours light/dark cycle.
Human colon carcinoma HCT 116 cells were purchased at American Type Culture Collection [(ATCC), Rockville, Md., USA). The HCT 116 cells were cultured in Dulbecco's modified Eagle's medium (DMEM) (Invitrogen).
The animals required to begin a given experiment were pooled and implanted monolaterally on day 0. Treatments were administered on measurable tumors. The solid tumors were allowed to grow to the desired volume range (animals with tumors not in the desired range were excluded). The mice were then pooled and unselectively distributed to the various treatment and control groups. […] The dosages are expressed in mg/kg, based on the body weight at start of therapy. Mice were checked daily, and adverse clinical reactions noted. Each group of mice was weighed as a whole daily until the weight nadir was reached. Then, groups were weighed once to thrice weekly until the end of the experiment. Tumors were measured with a caliper 2 to 3 times weekly until final sacrifice for sampling time, tumor reached 2000 mm^3 or until the animal died (whichever comes first). Solid tumor volumes were estimated from two-dimensional tumor measurements and calculated according to the following equation:
Changes in tumor volume for each treated (T) and control (C) group were calculated for each tumor by subtracting the tumor volume on the day of first treatment (staging day) from the tumor volume on the specified observation day. The median ΔT is calculated for the treated group, and the median ΔC is calculated for the control group. Then the ratio ΔT/ΔC is calculated and expressed as a percentage. The dose is considered as therapeutically active when ΔT/ΔC is lower than 40% and very active when ΔT/ΔC is lower than 10%.
The percent of tumor regression is defined as the % of tumor volume decrease in the treated group at a specified observation day compared to its volume on the first day of treatment. At a specific time point and for each animal, % regression is calculated. The median % regression is then calculated for the group using the following equation:
Partial regression: Regressions are defined as partial if the tumor volume decreases to 50% of the tumor volume at the start of treatment.
Complete regression: The CR is achieved when tumor volume=0 mm^3 (CR is considered when tumor volume cannot be recorded).

PANC1 = test: SRB cell growth assay, 72 h; format: cell-based, human; conditions: single agent
[3] = system: human primary colon tumors CR-LRB-009C; test: antitumor activity against subcutaneous CR-LRB-009C xenografts; format: in vivo
Method: The human primary colon carcinoma CR-LRB-009C tumor model was established by implanting (SC) small tumor fragments and was maintained in SCID female mice using serial passages.
Treatments were administered on measurable tumors. […] Mice were checked daily, and adverse clinical reactions noted.
Animal body weights included the tumor weight.
The primary efficacy end points are ΔT/ΔC, percent median regression, partial and complete regressions (PR and CR). Statistical analyses were performed on SAS system release 8.2 for SUN4 via Everstat V5 software and SAS 9.2 software. A probability less than 5% (p<0.05) was considered as significant.

SKBR3 = test: SRB cell growth assay, 72 h; format: cell-based, human; conditions: single agent
EJ28 = test: SRB cell growth assay, 72 h; format: cell-based, human; conditions: single agent
HCT116 = test: SRB cell growth assay, 72 h; format: cell-based, human; conditions: single agent
DLD1 = test: SRB cell growth assay, 72 h; format: cell-based, human; conditions: single agent
A673 = test: SRB cell growth assay, 72 h; format: cell-based, human; conditions: single agent
DU145 = test: SRB cell growth assay, 72 h; format: cell-based, human; conditions: single agent
[4] = system: human colon carcinoma HCT 116; test: HCT116 tumor growth in fluorescence molecular tomography study; format: in vivo, SCID mice; conditions: (1) 10 mg/kg oral daily day 11 to day 17; NS
MCF7 = test: SRB cell growth assay, 72 h; format: cell-based, human
[5] = system: resting Peripheral Blood Mononuclear Cells, PBMC; test: SRB cell growth assay, 72 h, non-proliferating cells; format: cell-based
Method: Cell lines were selected to represent 17 different indications with many different genetic variations and biochemical characteristics. In addition, the study included resting Peripheral Blood Mononuclear Cells, PBMC, as a model for non-proliferating cells.
Cell growth and treatment were performed in 96-well microtitre plates CELLSTAR® (Greiner Bio-One, Germany). Cells harvested from exponential phase cultures by trypsinization were plated in 150 μl of media at optimal seeding densities. The optimal seeding densities for each cell line were determined to ensure exponential growth for the duration of the experiment. All cells growing without anticancer agents were sub-confluent by the end of the treatment as determined by visual inspection. […]
After treatment, cells were precipitated by addition of 10% TCA. […] Measurement of optical density was performed at 560 nm on a Victor 2 plate reader (Perkin Elmer, Germany). […]
Using these measurements, cellular responses can be calculated for incomplete inhibition of cell growth (GI), complete inhibition of cell growth (T GI) and net loss of cells (LC) due to compound activity. […] Similar to IC90, calculated GI90 values are also reported for all compounds tested. TGI was calculated from Ti=Tz. […] It was calculated as 100×[(Ti−Tz)/Tz]=−50. […]

BT20 = test: SRB cell growth assay, 72 h; format: cell-based, human; conditions: single agent
CASKI = test: SRB cell growth assay, 72 h; format: cell-based, human; conditions: single agent
A549 = test: SRB cell growth assay, 72 h; format: cell-based, human
[6] = study 1, (1) 5 mg/kg PO daily days 11-18
[7] = study 2, (1) 10 mg/kg PO daily days 11-18 (day 17: 20 mg/kg)
[8] = study 2, (1) 20 mg/kg PO daily days 11-18
[9] = study 3, (1) 10 mg/kg PO daily days 11-20
[10] = study 3, (1) 20 mg/kg PO daily days 11-20
[11] = study 4, (1) 10 mg/kg PO daily days 11-20
[12] = study 4, (1) 20 mg/kg PO daily days 11-20
[13] = (1) 20 mg/kg PO daily days 11-21

O=C(NC[C@H](O)CO)c1ccncc1Nc1ccc(I)cc1F [Compound (1), N—((S)-2,3-dihydroxypropyl)-3-(2-fluoro-4-iodo-phenylamino)isonicotinamide]
cell lines sensitive below 100 nM ([1]; 82 cell lines): 27 of 82 | IC50 ([1]; median of cell lines tested, read-out: median sensitivity): 490 nM | IC50 ([1]; sensitive cell lines of the panel, read-out: Efficacy in sensitive cell lines): 4 to 5 nM | difference between the most and least sensitive cell lines ([1]; panel): 10.000 fold | activity (cell growth inhibition) (MDAMB468): minimal activity | Average body weight change in % per mouse at nadir [2, 6]: −3.4 (14) % | Drug death [2, 6]: 0/7 | Regressions Complete [2, 6]: 0/7 | Regressions Partial [2, 6]: 0/7 | Median ΔT/ΔC in % day 18 ([2]; study 1, (1) 5 mg/kg PO daily days 11-18, 5 mg/kg): 70% | tolerability ([2]; study 1, as single agents or used in combination): well-tolerated, inducing minimal BWL | Average body weight change in % per mouse at nadir [2, 7]: −2.2 (18) % | Drug death [2, 7]: 0/7 | Median ΔT/ΔC in % day 18 [2, 7]: 20% | Regressions Complete [2, 7]: 0/7 | Regressions Partial [2, 7]: 0/7 | Average body weight change in % per mouse at nadir [2, 8]: −1.1 (15) % | Drug death [2, 8]: 0/7 | Median ΔT/ΔC in % day 18 [2, 8]: 22% | Regressions Complete [2, 8]: 0/7 | Regressions Partial [2, 8]: 0/7 | tolerability ([2]; study 2, as single agents): well-tolerated, inducing minimal BWL | Average body weight change in % per mouse at nadir [2, 9]: −4.9 (20) % | Drug death [2, 9]: 0/10 | Regressions Complete [2, 9]: 0/10 | Regressions Partial [2, 9]: 0/10 | Median ΔT/ΔC in % day 20 ([2]; study 3, (1) 10 mg/kg PO daily days 11-20, 10 mg/kg): 43% | Average body weight change in % per mouse at nadir [2, 10]: −3.6 (19) % | Drug death [2, 10]: 0/10 | Median ΔT/ΔC in % day 20 [2, 10]: 34% | Regressions Complete [2, 10]: 0/10 | Regressions Partial [2, 10]: 0/10 | tolerability ([2]; study 3, as single agents): well-tolerated, inducing minimal BWL | Average body weight change in % per mouse at nadir [2, 11]: −2.3 (13) % | Drug death [2, 11]: 0/10 | Regressions Complete [2, 11]: 0/10 | Regressions Partial [2, 11]: 0/10 | Median ΔT/ΔC in % day 20 ([2]; study 4, (1) 10 mg/kg PO daily days 11-20, 10 mg/kg): 53% | Average body weight change in % per mouse at nadir [2, 12]: −4.1 (18) % | Drug death [2, 12]: 0/10 | Regressions Complete [2, 12]: 0/10 | Regressions Partial [2, 12]: 0/10 | Median ΔT/ΔC in % day 20 ([2]; study 4, (1) 20 mg/kg PO daily days 11-20, 20 mg/kg): 41% | tolerability ([2]; study 4, as single agents): well-tolerated, inducing minimal BWL | z-score MSC6369 (PANC1): 3.00 | activity (cell growth inhibition) (PANC1; up to 50 μM): minimal activity | Average body weight change in % per mouse at nadir [3, 13]: −7.7 (20) % | Drug death [3, 13]: 0/7 | Regressions Complete [3, 13]: 0/7 | Regressions Partial [3, 13]: 0/7 | Median ΔT/ΔC in % day 21 ([3]; (1) 20 mg/kg PO daily days 11-21, 20 mg/kg): 53% | tolerability ([3]; as single agents or used in combination): tolerated, inducing some BWL but not reaching toxicity | sensitivity (SKBR3): non-sensitive | z-score MSC6369 (SKBR3): 0.69 | z-score MSC6369 (EJ28): −0.68 | z-score MSC6369 (HCT116): −0.32 | z-score MSC6369 (DLD1): 0.19 | z-score MSC6369 (A673): 3.00 | activity (cell growth inhibition) (A673; up to 50 μM): minimal activity; also recorded: non-sensitive | z-score MSC6369 (DU145): 0.73 | ΔT/ΔC at the end of study [4]: 40% | GI50 (MCF7; Homo sapiens): 150 nM | z-score MSC6369 (MCF7; single agent): −0.33 | activity in resting (arrested) PBMC [5]: no activity | z-score MSC6369 (BT20): 0.02 | z-score MSC6369 (CASKI): 1.55 | GI50 (A549; Homo sapiens): 300 nM | z-score MSC6369 (A549; single agent): −0.11
